Laboratory results reported in ChEMBL document CHEMBL1201862, “PubChem BioAssay data set” (2004).
Active and inactive are the calls of the source.

How the values were obtained:
[1] = test system: Streptococcus sp. 'group A'; assay: Streptococcus pyogenes SK(-)GAS viability under kanamycin – luminescence, BacTiterGlo, confirmation, counter-screen for streptokinase expression inhibitor project, dose response (AID 1900); type: functional, organism-based
Streptokinase A = molecular target: T1, Streptokinase A (Streptococcus pyogenes serotype M1, UniProt P10520); assay: viability-normalized secreted streptokinase activity reduction – plasminogen activation absorbance, OD405, dose response (AID 1914); type: functional, Streptococcus pyogenes M1 GAS;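 further: secreted streptokinase activity via plasminogen activation per viability signal from cell pellet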
T1 sequence (P10520 whole entry): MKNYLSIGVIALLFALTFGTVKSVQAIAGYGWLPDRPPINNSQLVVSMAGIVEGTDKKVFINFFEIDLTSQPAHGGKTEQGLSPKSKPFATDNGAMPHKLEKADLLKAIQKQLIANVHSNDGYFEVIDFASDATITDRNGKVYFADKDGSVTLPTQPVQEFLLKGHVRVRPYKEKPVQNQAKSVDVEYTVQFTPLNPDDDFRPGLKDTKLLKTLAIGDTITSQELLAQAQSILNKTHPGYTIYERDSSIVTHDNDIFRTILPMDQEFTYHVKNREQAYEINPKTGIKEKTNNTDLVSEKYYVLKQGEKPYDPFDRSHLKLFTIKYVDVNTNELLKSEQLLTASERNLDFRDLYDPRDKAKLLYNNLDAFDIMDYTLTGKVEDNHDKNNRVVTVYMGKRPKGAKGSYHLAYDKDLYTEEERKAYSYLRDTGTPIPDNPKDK

Streptococcus = assay: GAS UMAA2166 growth inhibition – luminescence, BacTiterGlo, counter-screen for streptokinase expression inhibitor project, dose response (AID 1915); type: functional, organism-based;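 further: potency for reduction of bacterial viability or growth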
Cryptococcus neoformans [2] = assay: PubChem AID 686997; type: functional, organism-based
HeLa = assay: viability loss in HeLa cells – cell-based, ATP luminescence, cherry-pick samples, cytotoxicity control, dose response (AID 687004); type: functional; details: Homo sapiens
Cryptococcus neoformans [3] = assay: Cryptococcus growth inhibition by alamar blue – cell lysis, cherry-picks, replicate tests, mechanism study for C. neoformans antifungal project, dose response (AID 686999); type: functional, organism-based
[4] = viability loss in HEK293T cells – cell-based, ATP luminescence, dry powder, set 3, cytotoxicity control, dose response (AID 743131); type: functional; details: HEK293
Large T antigen = Large T antigen (Simian virus 40, UniProt P03070); type: functional, Betapolyomavirus macacae;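 further: Confirmatory-stage PubChem screen for compounds that inhibit SV40 T antigen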
[5] = molecular target: E3 ubiquitin-protein ligase XIAP (Homo sapiens, UniProt P98170); assay: Counter Screen using XIAP-Bir3 for Chemical Antagonists of Bir1/2 domains of IAP-family anti-apoptotic proteins. [Related pubchem assays (depositor defined):AID1018, AID1449, AID1514, AID1638, AID1749, AID1750, AID488957, AID488963]
[6] = molecular target: T2, Histone-lysine N-methyltransferase NSD2 (Homo sapiens, UniProt O96028); type: biochemical
T2 sequence (O96028 whole entry): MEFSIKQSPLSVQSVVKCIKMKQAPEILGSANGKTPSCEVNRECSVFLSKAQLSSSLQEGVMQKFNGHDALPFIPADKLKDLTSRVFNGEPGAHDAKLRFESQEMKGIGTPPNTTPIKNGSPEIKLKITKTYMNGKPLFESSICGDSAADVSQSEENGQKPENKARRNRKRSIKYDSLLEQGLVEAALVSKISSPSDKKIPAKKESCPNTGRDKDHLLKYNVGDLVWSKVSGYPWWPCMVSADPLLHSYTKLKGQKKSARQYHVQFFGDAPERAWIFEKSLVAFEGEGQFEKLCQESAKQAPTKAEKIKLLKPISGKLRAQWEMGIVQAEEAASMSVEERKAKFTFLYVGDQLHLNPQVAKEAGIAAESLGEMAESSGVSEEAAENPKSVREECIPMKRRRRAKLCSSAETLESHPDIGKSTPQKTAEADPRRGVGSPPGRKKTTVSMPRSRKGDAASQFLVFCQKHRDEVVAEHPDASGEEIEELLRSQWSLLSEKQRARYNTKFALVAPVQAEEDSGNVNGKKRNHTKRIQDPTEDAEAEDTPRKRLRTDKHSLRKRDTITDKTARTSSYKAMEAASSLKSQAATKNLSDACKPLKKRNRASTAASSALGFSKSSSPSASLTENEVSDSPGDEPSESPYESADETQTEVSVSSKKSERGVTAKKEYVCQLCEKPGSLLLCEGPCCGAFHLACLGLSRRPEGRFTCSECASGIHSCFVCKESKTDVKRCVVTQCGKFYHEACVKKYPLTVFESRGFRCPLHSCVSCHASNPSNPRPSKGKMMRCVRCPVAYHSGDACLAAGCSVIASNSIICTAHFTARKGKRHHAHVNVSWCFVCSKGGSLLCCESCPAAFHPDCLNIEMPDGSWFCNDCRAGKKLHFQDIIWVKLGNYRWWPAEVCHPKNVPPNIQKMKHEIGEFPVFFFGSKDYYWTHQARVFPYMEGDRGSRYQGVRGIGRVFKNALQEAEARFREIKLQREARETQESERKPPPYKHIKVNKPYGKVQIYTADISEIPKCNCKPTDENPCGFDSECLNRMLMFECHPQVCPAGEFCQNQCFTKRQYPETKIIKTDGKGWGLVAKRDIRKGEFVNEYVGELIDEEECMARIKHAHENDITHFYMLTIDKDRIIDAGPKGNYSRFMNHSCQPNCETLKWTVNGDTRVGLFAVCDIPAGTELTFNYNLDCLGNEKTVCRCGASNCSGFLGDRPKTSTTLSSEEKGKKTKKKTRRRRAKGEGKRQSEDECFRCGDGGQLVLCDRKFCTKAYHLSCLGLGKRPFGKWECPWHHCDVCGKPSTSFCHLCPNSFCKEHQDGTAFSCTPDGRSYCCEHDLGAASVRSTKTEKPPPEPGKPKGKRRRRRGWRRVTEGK

Fibrinogen beta chain [7] = molecular target: T3, Fibrinogen beta chain (Homo sapiens, UniProt P02675); assay: Fluorescence polarization-based biochemical high throughput dose response assay to identify inhibitors that disrupt the binding of a cyclic peptide (Tn6) to the fibrin proteolytic product D-Dimer and fragment E complex [DD(E )].
[8] = molecular target: T4, Tyrosyl-DNA phosphodiesterase 2 (Homo sapiens, UniProt O95551); assay: potency against TDP2 phosphodiesterase activity – biochemical, epi absorbance, IC50, dose response (AID 743297)
T4 sequence (O95551 whole entry): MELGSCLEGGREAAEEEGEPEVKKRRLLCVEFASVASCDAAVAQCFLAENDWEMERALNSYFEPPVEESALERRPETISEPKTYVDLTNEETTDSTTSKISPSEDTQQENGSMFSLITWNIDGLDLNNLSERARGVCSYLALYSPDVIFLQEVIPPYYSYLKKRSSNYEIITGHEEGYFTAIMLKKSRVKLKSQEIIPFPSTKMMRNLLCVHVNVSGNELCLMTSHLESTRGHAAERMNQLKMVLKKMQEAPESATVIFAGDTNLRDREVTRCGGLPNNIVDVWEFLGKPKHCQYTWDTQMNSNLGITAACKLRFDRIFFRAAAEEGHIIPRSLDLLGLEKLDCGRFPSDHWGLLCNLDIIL

Fibrinogen beta chain [9] = molecular target: T3, Fibrinogen beta chain; assay: Fluorescence polarization-based biochemical high throughput dose response assay to identify inhibitors that disrupt the binding of a cyclic peptide (Tn7) to the fibrin proteolytic product D-Dimer and fragment E complex [DD(E )].
[10] = molecular target: T5, RNA-binding protein pos-1 (Caenorhabditis elegans, UniProt G5EF15); assay: disruptors of C. elegans POS-1 RNA interaction – biochemical, fluorescence polarization, dose response (AID 1964);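 further: purified POS-1 fused to maltose binding protein made in E. coli; potency of compounds blocking POS-1 binding to fluorescent RNA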
T5 sequence (G5EF15 whole entry): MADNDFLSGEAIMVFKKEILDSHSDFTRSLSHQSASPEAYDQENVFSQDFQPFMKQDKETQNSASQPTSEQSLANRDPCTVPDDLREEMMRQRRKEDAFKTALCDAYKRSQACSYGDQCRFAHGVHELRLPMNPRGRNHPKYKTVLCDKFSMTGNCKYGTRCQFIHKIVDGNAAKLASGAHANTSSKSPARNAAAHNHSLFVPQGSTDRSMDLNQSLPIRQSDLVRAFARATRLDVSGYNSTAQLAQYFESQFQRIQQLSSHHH

[11] = molecular target: T6, Zinc finger protein mex-5 (Caenorhabditis elegans, UniProt Q9XUB2); assay: potency of MEX-5 RNA-binding blockers – biochemical, C. elegans, fluorescence polarization, dose response (AID 1960)
T6 sequence (Q9XUB2 whole entry): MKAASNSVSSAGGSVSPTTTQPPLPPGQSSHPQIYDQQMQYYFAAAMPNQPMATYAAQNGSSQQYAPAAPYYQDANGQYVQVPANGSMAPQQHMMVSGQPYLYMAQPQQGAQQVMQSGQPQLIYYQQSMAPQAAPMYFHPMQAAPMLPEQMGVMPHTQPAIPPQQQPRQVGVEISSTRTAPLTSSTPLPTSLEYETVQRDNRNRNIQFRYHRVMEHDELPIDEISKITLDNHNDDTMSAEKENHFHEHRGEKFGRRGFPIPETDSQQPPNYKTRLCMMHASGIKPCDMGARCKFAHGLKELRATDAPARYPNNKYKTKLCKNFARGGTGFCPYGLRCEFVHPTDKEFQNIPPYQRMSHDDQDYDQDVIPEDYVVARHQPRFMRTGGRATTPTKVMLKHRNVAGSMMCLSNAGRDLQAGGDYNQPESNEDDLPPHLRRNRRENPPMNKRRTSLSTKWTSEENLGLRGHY

[12] = molecular target: Bifunctional protein GlmU (Mycobacterium tuberculosis, UniProt P9WMN3); assay: Inhibitors of Mycobacterial Glucosamine-1-phosphate acetyl transferase (GlmU). Secondary screen.; design: species or system Mycobacterium tuberculosis H37Rv
[13] = molecular target: Induced myeloid leukemia cell differentiation protein Mcl-1 (Homo sapiens, UniProt Q07820); type: functional
[14] = molecular target: T7, Tyrosine-protein phosphatase non-receptor type 7 (Homo sapiens, UniProt P35236); assay: HePTP tyrosine phosphatase activity blockers – biochemical, absorbance, leukemia target, primary screen (AID 521); type: functional
T7 sequence (P35236 whole entry): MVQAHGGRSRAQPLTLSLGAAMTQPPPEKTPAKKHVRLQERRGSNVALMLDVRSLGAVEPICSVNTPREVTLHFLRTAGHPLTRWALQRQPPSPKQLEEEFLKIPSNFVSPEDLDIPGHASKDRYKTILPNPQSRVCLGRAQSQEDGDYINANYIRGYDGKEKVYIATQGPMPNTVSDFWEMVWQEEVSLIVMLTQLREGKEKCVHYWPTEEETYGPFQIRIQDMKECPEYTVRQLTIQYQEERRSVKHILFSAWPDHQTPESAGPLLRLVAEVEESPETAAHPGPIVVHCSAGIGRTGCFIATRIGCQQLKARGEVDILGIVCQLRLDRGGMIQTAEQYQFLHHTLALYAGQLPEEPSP

ELAV-like protein 1 = ELAV-like protein 1 (Homo sapiens, UniProt Q15717); assay: Identify HuR specific inhibitors.; type: functional
Chain of ELAV-like protein 1 (Q15717 whole entry): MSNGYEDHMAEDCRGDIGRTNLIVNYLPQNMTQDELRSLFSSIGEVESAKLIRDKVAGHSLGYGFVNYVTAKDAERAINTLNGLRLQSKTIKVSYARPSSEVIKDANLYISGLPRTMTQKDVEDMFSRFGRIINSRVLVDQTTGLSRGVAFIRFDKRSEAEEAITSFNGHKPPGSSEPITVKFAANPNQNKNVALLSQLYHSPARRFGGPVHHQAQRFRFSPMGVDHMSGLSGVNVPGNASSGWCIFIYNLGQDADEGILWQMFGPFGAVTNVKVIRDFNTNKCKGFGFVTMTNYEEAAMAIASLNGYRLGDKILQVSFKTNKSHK

T3 sequence (P02675 whole entry, the tested form may be a part): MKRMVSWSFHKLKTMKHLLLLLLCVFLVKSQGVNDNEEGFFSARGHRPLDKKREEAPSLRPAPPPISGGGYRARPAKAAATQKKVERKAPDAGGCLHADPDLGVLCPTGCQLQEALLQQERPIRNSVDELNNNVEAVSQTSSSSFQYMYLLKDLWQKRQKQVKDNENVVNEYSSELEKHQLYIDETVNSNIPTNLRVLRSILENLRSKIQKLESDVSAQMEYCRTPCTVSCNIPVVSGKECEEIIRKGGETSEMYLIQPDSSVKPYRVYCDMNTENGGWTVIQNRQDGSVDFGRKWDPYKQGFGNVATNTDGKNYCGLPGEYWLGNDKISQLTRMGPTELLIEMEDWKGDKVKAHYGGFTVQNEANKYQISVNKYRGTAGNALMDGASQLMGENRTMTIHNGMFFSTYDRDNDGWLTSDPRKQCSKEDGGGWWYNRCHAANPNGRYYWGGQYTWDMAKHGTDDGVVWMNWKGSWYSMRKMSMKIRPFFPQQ
Chain of Large T antigen (P03070 whole entry): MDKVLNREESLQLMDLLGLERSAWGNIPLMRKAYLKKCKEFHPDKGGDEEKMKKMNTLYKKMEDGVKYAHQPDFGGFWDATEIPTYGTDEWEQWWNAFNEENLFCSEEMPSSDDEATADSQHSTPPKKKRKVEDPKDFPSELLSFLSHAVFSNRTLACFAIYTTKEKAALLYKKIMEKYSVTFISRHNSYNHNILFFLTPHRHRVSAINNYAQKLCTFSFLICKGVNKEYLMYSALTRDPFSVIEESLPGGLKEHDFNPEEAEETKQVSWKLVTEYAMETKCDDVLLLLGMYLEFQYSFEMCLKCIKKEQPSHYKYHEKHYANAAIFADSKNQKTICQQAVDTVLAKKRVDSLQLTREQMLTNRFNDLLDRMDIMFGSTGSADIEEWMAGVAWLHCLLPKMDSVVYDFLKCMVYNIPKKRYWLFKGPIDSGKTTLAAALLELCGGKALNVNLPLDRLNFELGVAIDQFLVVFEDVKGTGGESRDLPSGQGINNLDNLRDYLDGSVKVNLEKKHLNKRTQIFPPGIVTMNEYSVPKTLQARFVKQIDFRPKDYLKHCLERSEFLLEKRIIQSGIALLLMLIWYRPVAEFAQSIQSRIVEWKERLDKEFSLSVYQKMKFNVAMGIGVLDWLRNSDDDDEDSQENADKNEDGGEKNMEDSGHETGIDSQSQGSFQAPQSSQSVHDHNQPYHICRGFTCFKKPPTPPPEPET
Chain of Bifunctional protein GlmU (P9WMN3 whole entry): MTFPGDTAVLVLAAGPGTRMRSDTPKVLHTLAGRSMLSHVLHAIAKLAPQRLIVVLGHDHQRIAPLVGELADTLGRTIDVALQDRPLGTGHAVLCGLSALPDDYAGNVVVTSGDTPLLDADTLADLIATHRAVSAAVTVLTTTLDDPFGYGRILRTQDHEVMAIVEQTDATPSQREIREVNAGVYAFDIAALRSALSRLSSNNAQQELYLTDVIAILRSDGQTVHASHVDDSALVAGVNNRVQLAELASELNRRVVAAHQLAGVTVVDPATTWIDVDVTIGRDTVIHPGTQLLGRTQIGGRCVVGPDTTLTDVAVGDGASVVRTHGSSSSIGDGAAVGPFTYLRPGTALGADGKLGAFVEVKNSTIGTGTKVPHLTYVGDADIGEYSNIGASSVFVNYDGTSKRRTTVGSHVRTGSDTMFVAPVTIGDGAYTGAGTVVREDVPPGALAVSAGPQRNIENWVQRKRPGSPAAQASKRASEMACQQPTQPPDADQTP
Chain of E3 ubiquitin-protein ligase XIAP (P98170 whole entry): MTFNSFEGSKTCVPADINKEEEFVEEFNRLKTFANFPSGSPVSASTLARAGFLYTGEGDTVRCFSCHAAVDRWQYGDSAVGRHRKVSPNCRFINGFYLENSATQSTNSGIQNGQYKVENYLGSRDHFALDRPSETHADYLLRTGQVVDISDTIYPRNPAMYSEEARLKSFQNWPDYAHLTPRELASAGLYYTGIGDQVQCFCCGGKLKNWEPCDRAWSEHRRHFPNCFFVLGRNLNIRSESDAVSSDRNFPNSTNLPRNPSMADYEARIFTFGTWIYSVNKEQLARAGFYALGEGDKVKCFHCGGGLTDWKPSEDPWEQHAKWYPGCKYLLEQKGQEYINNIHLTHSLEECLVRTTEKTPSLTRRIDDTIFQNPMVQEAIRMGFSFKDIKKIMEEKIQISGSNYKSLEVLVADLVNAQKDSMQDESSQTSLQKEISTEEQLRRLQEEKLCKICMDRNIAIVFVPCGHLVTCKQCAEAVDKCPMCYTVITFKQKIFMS
Chain of Induced myeloid leukemia cell differentiation protein Mcl-1 (Q07820 whole entry): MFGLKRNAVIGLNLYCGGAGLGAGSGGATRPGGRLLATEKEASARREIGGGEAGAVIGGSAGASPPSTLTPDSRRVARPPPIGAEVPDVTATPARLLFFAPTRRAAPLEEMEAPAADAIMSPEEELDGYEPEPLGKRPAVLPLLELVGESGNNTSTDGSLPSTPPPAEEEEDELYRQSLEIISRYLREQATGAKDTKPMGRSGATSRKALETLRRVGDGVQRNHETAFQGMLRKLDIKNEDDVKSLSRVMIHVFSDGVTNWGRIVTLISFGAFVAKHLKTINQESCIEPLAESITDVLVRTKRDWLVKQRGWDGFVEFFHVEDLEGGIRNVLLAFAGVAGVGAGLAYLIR

Cc1ccc(OCCn2c(S)nc3ccccc32)c(C(C)C)c1
EC50 [1]: 2.73 µM (active) | EC50 (Streptokinase A): 15.2 µM (active) | EC50 (Streptococcus): 17.2 µM (active) | AC50 (Cryptococcus neoformans [2]): 20.7 µM (active) | AC50 (HeLa): 37.9 µM (active) | AC50 (Cryptococcus neoformans [3]): 11.2 µM (active) | AC50 [4]: 10.3 µM (active)

O=C(O)CCCNc1cc(N2CCN(C(=O)c3ccco3)CC2)c2noc3c2c1C(=O)c1ccccc1-3
EC50 [1]: 5.52 µM (active) | EC50 (Streptokinase A): > 150 µM (not active) | IC50 (Large T antigen): > 100 µM (active) | IC50 [5]: > 20 µM (inactive) | EC50 (Streptococcus): 31.8 µM (active) | AC50 [6]: 14.8 µM (active) | IC50 (Fibrinogen beta chain [7]): 4.96 µM (active) | IC50 [8]: > 128 µM (inactive) | IC50 (Fibrinogen beta chain [9]): > 83.3 µM (inactive)

O=C1NC(=S)/C(=C\c2ccc(-c3ccccc3Cl)o2)S1
EC50 [10]: > 300 µM (not active) | EC50 [1]: 3.42 µM (active) | EC50 [11]: > 300 µM (not active) | EC50 (Streptokinase A): 14.7 µM (active) | IC50 [12]: 194 µM (active) | IC50 [13]: 3.31 µM (active) | EC50 (Streptococcus): 28.2 µM (active)

c1cc2c(cc1Cn1cnnn1)OCO2
IC50 [14]: > 100 µM (not active)

O=C(O)C1=NN(c2cc(Cl)c(S(=O)(=O)O)cc2Cl)C(=O)C1
IC50 (ELAV-like protein 1): 16.7 µM (inactive)
